Article PMC4827093, “Proximal ADP-ribose Hydrolysis in Trypanosomatids is Catalyzed by a Macrodomain” (Scientific Reports, 2016)
Read-outs that look alike come from different tables or passages of the source.

Key:
[1] = biological target: T1, TbMDO (Trypanosoma brucei MacroD-like protein) (Trypanosoma brucei, UniProt C9ZP98); assay: isothermal titration calorimetry; assay type: binding
T1 construct: gene TbgDal_V3640; full-length, codon-optimized synthetic cDNA, pNH-TrxT vector, E. coli BL21(DE3), fusion tags cut with TEV protease; crystal structures comprise residues 11-261
T1 sequence (C9ZP98 1-265): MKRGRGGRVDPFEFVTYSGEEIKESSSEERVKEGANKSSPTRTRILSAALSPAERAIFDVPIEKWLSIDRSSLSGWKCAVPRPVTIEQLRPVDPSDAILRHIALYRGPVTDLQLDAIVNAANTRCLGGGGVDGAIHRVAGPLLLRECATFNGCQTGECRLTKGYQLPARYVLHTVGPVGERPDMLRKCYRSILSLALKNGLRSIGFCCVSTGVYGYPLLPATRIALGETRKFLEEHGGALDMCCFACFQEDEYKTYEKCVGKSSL

[2] = biological target: T2, TcMDO (Trypanosoma cruzi MacroD-like protein) (Trypanosoma cruzi, UniProt Q4DQ03); assay: isothermal titration calorimetry; assay type: binding
T2 construct: gene Tc00.1047053509179.20; full-length, codon-optimized synthetic cDNA, pNH-TrxT vector, E. coli BL21(DE3), fusion tags cut with TEV protease; crystal structure comprises residues 13-257
T2 sequence (Q4DQ03 1-267): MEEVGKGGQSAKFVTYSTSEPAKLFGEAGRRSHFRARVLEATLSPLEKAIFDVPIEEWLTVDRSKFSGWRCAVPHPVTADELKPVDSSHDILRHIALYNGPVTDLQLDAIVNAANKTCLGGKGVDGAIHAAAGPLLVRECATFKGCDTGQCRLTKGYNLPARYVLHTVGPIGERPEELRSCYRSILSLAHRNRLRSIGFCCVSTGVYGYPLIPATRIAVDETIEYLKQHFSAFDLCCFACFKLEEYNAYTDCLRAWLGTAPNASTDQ

[3] = biological target: T1, TbMDO (Trypanosoma brucei MacroD-like protein); assay: ESI-TOF mass spectrometry of hydrolysis products; assay type: biochemical; settings: 0.5 mM 2′/3′-O-acetyl-ADP-ribose, 50 μM protein, 22 °C, 4 h; isomer mixture
[4] = biological target: T2, TcMDO (Trypanosoma cruzi MacroD-like protein); assay: ESI-TOF mass spectrometry of hydrolysis products; assay type: biochemical; settings: 0.5 mM 2′/3′-O-acetyl-ADP-ribose, 50 μM protein, 22 °C, 4 h; isomer mixture
[5] = pH 7.5, 50 mM HEPES, 250 mM NaCl, 0.5 mM TCEP, 25 °C, three titrations, same data as the Ka row, read-out: affinities

**Q.** Which results are given for `Nc1ncnc2c1ncn2[C@@H]1O[C@H](COP(=O)(O)OP(=O)(O)O)[C@@H](O)[C@H]1O` [ADP]?
**A.** Kd ([1]; read-out: K (converted)): 1850 µM; Kd ([1]; read-out: KD): 1900 µM; Kd ([2]; read-out: K (converted)): 820 µM; Kd ([2]; read-out: KD): 800 µM

**Q.** What does the source list for `CC(=O)O[C@H]1C(O)O[C@H](COP(=O)(O)OP(=O)(O)OC[C@H]2O[C@@H](n3cnc4c(N)ncnc43)[C@H](O)[C@@H]2O)[C@H]1O` (some centres unmarked) [O-acetyl-ADP-ribose]?
**A.** ESI-TOF mass spectrometry of hydrolysis products [3]: Incubation of O-acetyl-ADP-ribose with both proteins resulted in the decrease of the mass; ESI-TOF mass spectrometry of hydrolysis products [4]: Incubation of O-acetyl-ADP-ribose with both proteins resulted in the decrease of the mass

**Q.** How did the Kd [1, 5] turn out when `Nc1ncnc2c1ncn2[C@@H]1O[C@H](COP(=O)(O)OP(=O)(O)OC[C@H]2OC(O)[C@H](O)[C@@H]2O)[C@@H](O)[C@H]1O` (some centres unmarked) [ADP-ribose] was run?
**A.** Its Kd is 1.3 µM.

**Q.** What about the Kd [2, 5] of the same compound?
**A.** Its Kd is 0.2 µM.
